{"source": "ChEMBL document CHEMBL5034001", "about": "(J Med Chem, 2021)", "key": {"SR [1]": {"test_system": "SR", "assay": "Down regulation of PYK2 in human SR cells at 0.1 to 1000 nM after 16 hrs by Western blot analysis", "format": "functional, cell-based", "conditions": "dose 0.1-1000 nM"}, "[2]": {"target": "T1, ALK tyrosine kinase receptor (Homo sapiens, UniProt Q9UM73)", "T1 sequence (Q9UM73 19-1620 limits assumed)": "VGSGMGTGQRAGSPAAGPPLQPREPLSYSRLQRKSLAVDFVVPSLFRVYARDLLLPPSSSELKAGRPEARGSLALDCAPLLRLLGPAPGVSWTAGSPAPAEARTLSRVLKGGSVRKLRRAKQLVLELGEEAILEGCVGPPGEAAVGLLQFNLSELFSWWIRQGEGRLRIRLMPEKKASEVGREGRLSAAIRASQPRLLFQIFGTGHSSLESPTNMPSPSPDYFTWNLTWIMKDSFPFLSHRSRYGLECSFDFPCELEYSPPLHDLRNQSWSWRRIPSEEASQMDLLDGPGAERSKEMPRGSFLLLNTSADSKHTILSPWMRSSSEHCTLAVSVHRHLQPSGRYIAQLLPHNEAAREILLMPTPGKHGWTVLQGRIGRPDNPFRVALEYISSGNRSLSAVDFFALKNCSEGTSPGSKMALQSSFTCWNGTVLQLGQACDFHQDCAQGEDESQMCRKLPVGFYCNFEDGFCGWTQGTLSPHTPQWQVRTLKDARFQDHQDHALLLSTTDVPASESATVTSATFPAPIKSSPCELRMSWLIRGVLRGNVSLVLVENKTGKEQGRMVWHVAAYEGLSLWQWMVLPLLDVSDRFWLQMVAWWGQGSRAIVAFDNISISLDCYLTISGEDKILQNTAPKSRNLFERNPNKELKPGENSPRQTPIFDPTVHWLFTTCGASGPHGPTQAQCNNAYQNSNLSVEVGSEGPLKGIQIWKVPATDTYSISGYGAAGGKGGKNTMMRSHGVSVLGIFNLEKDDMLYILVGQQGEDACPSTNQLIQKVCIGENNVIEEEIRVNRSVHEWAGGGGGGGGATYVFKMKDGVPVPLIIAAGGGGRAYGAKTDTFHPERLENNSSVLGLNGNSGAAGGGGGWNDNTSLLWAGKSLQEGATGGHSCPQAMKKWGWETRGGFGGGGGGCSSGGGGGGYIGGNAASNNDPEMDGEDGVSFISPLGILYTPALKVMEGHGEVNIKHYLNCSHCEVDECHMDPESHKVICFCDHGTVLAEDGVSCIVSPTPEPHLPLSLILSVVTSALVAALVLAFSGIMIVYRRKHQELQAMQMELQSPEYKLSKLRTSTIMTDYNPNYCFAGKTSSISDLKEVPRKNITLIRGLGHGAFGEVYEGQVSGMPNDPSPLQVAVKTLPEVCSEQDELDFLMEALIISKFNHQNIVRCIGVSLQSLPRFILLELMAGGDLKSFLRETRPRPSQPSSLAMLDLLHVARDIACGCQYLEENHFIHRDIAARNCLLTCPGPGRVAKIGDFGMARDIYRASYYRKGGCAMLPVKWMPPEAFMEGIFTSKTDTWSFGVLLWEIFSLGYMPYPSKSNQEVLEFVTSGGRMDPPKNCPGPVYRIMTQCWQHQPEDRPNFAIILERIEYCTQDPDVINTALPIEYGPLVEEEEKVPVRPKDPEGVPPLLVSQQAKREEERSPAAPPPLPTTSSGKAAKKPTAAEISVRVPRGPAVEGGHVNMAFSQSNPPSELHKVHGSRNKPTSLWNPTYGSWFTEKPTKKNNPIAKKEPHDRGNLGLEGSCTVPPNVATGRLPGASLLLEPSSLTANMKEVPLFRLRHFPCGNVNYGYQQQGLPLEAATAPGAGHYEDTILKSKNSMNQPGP", "assay": "Induction of ALK degradation in human SR cells at 100 nM pretreated with proteosome inhibitor MLN4924 for 4 hrs followed by compound addition and measured after 16 hrs by Western blot analysis", "format": "cell-based"}, "[3]": {"target": "T1, ALK tyrosine kinase receptor", "assay": "Induction of ALK degradation in human SR cells at 100 nM incubated with compound for 24 hrs followed by compound washout and measured upto 72 hrs by Western blot analysis", "format": "cell-based"}, "[4]": {"target": "T1, ALK tyrosine kinase receptor", "assay": "Inhibition of ALK downstream signalling in human SR cells assessed as reduction in ratio of pALK at 0.1 to 50 nM by Western blot analysis", "format": "cell-based", "conditions": "dose 0.1-50 nM"}, "[5]": {"target": "Signal transducer and activator of transcription 3 (Homo sapiens) (UniProt P40763)", "assay": "Inhibition of STAT3 downstream signalling in human SR cells assessed as reduction in pSTAT3 level at 10 nM by Western blot analysis", "format": "cell-based"}, "[6]": {"test_system": "ALK tyrosine kinase receptor (Homo sapiens), Q9UM73 [G1202R]", "assay": "Induction of […] G1202R mutant degradation in human […] at 100 nM by Western blot analysis", "format": "cell-based"}, "MDA-MB-231 [7]": {"test_system": "MDA-MB-231", "assay": "Induction of apoptosis in human MDA-MB-231 cells at 100 nM after 72 hrs", "format": "functional, cell-based"}, "Calu-1 [8]": {"test_system": "Calu-1", "assay": "Inhibition of cell invasion in human Calu-1-GFP cells at 100 nM after 24 hrs by transwell invasion assay", "format": "functional, cell-based"}, "NCI-H2228": {"test_system": "NCI-H2228", "assay": "Down regulation of RSK1 in human NCI-H2228 cells at 1 to 1000 nM after 16 hrs by Western blot analysis", "format": "functional, cell-based", "conditions": "dose 1-1000 nM"}, "SR [9]": {"test_system": "SR", "assay": "Down regulation of FER in human SR cells at 0.1 to 1000 nM after 16 hrs by Western blot analysis", "format": "functional, cell-based", "conditions": "dose 0.1-1000 nM"}, "[10]": {"target": "Focal adhesion kinase 1 (Homo sapiens) (UniProt Q05397)", "sequence (Q05397 2-1052 limits assumed)": "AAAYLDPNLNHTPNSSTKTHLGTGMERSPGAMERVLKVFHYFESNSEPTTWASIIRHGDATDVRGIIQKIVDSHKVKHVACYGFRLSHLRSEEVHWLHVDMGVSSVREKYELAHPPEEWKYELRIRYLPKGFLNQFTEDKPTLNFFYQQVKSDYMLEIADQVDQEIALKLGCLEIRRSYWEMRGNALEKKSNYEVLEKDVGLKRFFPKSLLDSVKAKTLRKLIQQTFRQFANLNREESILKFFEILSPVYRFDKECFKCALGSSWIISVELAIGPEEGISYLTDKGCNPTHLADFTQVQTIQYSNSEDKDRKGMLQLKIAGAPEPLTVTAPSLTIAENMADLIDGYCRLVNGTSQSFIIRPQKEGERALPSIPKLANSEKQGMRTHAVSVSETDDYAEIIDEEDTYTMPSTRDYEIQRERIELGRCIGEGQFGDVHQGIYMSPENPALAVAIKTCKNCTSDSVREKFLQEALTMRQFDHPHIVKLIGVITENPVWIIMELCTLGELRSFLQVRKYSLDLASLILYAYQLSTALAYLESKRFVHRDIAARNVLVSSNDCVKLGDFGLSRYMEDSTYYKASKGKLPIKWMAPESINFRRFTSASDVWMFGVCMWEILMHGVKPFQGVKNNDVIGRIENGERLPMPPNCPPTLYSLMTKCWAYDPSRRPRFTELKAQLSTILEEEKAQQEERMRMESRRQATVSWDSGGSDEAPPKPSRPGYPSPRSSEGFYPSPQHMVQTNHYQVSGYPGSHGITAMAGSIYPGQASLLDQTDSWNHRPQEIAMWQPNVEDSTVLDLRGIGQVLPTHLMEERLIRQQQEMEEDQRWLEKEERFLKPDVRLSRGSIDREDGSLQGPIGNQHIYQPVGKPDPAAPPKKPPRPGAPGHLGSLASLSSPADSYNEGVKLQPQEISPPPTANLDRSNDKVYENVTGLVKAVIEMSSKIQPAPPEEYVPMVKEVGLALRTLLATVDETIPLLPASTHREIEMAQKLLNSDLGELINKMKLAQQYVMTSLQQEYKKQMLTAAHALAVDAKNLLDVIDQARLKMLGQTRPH", "assay": "Induction of FAK degradation in human NCI-H2228 cells at 1 nM after 16 hrs by Western blot analysis", "format": "cell-based"}, "Calu-1 [11]": {"test_system": "Calu-1", "assay": "Down regulation of C-myc protein expression in human Calu-1 cells at 1 to 500 nM after 48 hrs by Western blot analysis", "format": "functional, cell-based", "conditions": "dose 1-500 nM"}, "MDA-MB-231 [12]": {"test_system": "MDA-MB-231", "assay": "Down regulation of cyclin D1 protein expression in human MDA-MB-231 cells at 1 to 500 nM after 48 hrs by Western blot analysis", "format": "functional, cell-based", "conditions": "dose 1-500 nM"}, "[13]": {"target": "Leucine-rich repeat serine/threonine-protein kinase 2 (Homo sapiens) (UniProt Q5S007)", "assay": "Binding affinity to wild-type human partial length LRRK2 (H970 to E2527 residues) expressed in mammalian expression system assessed as residual binding level at 100 nM by Kinomescan method relative to control"}, "[14]": {"target": "Tyrosine-protein kinase JAK3 (Homo sapiens) (UniProt P52333)", "sequence (P52333 whole entry, the tested form may be a part)": "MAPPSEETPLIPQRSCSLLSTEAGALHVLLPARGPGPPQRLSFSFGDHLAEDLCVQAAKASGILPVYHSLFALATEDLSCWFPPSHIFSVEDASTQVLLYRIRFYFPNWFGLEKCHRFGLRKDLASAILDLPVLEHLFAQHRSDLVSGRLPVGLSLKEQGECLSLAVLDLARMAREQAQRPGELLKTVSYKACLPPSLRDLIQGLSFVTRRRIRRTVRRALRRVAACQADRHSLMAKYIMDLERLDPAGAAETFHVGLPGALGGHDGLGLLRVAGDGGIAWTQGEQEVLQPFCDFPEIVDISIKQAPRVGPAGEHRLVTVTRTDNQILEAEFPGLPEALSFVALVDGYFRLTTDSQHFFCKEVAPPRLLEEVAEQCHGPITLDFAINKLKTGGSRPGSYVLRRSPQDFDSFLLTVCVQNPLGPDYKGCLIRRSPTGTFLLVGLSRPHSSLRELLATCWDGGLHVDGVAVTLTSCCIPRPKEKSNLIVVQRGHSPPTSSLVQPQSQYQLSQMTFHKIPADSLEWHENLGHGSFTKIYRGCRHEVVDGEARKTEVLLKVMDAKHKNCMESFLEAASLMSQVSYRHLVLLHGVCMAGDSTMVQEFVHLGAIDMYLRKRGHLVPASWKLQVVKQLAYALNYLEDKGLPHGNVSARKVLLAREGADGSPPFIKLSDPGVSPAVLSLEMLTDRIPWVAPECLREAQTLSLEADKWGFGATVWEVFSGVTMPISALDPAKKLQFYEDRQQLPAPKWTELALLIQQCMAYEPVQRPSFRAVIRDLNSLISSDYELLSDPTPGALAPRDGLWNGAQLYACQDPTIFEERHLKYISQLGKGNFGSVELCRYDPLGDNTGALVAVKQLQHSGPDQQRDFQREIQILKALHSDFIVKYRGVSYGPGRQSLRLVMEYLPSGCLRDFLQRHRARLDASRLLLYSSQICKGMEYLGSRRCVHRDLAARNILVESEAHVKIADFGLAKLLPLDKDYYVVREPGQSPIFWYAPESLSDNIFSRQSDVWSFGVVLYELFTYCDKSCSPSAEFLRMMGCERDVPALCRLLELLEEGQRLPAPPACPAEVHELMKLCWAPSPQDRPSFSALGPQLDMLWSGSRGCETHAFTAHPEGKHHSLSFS", "assay": "Binding affinity to wild-type human partial length JAK3 JH1 catalytic domain (I781 to S1124 residues) expressed in mammalian expression system assessed as residual binding level at 100 nM by Kinomescan method relative to control"}, "[15]": {"target": "Serine/threonine-protein kinase RIO1 (Homo sapiens) (UniProt Q9BRS2)", "sequence (Q9BRS2 whole entry, the tested form may be a part)": "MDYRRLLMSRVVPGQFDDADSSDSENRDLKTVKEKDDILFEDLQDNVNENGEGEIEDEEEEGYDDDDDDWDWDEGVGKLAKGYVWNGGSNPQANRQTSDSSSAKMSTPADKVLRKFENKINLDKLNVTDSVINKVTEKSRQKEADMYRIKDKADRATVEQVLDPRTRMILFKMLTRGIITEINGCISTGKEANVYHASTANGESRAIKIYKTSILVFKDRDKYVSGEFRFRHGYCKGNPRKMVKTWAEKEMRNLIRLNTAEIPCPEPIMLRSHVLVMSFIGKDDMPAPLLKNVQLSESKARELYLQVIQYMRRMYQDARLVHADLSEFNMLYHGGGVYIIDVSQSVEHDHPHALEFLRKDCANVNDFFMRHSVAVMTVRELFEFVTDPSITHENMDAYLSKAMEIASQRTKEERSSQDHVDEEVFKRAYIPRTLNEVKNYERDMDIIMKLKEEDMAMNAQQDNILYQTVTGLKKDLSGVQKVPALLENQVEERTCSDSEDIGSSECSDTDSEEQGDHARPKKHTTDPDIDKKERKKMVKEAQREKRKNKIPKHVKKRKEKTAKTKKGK", "assay": "Binding affinity to wild-type human full length RIOK1 (M1 to K568 residues) expressed in bacterial expression system assessed as residual binding level at 100 nM by Kinomescan method relative to control"}, "[16]": {"target": "Serine/threonine-protein kinase ULK1 (Homo sapiens) (UniProt O75385)", "assay": "Binding affinity to wild-type human partial length ULK1 (M1 to T309 residues) expressed in mammalian expression system assessed as residual binding level at 100 nM by Kinomescan method relative to control"}, "[17]": {"target": "Focal adhesion kinase 1 (Homo sapiens) (UniProt Q05397)", "assay": "Binding affinity to wild-type human partial length FAK (D402 to R696 residues) expressed in bacterial expression system assessed as residual binding level at 100 nM by Kinomescan method relative to control"}, "[18]": {"target": "Dual specificity protein kinase CLK1 (Homo sapiens) (UniProt P49759)", "sequence (P49759 whole entry, looked up, the tested form may be a part)": "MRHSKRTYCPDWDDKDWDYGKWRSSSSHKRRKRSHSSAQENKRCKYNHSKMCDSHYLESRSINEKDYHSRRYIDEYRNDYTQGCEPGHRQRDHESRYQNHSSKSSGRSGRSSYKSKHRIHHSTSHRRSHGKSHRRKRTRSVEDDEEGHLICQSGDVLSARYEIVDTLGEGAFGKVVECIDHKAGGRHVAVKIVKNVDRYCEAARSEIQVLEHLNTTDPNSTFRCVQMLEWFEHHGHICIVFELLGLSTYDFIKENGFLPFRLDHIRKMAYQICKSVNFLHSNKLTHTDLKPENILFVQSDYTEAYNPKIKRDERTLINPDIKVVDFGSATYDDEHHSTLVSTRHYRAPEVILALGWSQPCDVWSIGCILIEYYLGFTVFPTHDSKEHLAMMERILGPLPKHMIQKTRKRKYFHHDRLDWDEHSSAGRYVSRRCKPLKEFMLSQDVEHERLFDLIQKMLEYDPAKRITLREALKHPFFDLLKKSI", "assay": "Binding affinity to wild-type human full length CLK1 (M1 to I484 residues) expressed in bacterial expression system assessed as residual binding level at 100 nM by Kinomescan method relative to control"}, "[19]": {"test_system": "Mast/stem cell growth factor receptor Kit (Homo sapiens), P10721 [D816V]", "assay": "Binding affinity to human partial length KIT D816V mutant (I571 to D952 residues) expressed in bacterial expression system assessed as residual binding level at 100 nM by Kinomescan method relative to control"}, "[20]": {"assay": "Metabolic stability in human liver microsomes assessed as intrinsic clearance preincubated for 10 mins followed by NADPH regenerating system addition and measured after 10 mins by LC-MS/MS analysis", "format": "ADME, Microsome", "conditions": "time 20 min, read-out: CLH"}, "[21]": {"assay": "Metabolic stability in human liver microsomes assessed as half life preincubated for 10 mins followed by NADPH regenerating system addition and measured after 10 mins by LC-MS/MS analysis", "format": "ADME, Microsome"}, "[22]": {"assay": "Half life in […] at 10 mg/kg, po or 2 mg/kg, iv measured upto 24 hrs", "format": "ADME, organism-based", "conditions": "in vivo"}}, "note": "Active and inactive are the calls of the source. No cut-off for these calls is given here.", "data": [{"compound": "COc1cc(N2CCC(N3CCN(C(=O)CNc4cccc5c4C(=O)N(C4CCC(=O)NC4=O)C5=O)CC3)CC2)ccc1Nc1ncc(Cl)c(Nc2ccccc2P(C)(C)=O)n1", "note": "(stereo not drawn)", "values": [{"measurement": "Activity", "setting": "SR [1]", "result": "Active"}, {"measurement": "Activity", "setting": "[2]", "result": "inactive"}, {"measurement": "Activity", "setting": "[3]", "result": "Active"}, {"measurement": "Ratio", "setting": "[4]", "result": 0.18}, {"measurement": "inhibition", "setting": "[5]", "result": "Active"}, {"measurement": "Activity", "setting": "[6]", "result": "Active"}, {"measurement": "Activity", "setting": "MDA-MB-231 [7]", "result": "inactive"}, {"measurement": "inhibition", "setting": "Calu-1 [8]", "result": "Active"}, {"measurement": "Activity", "setting": "NCI-H2228", "result": "Active"}, {"measurement": "Activity", "setting": "SR [9]", "result": "Active"}, {"measurement": "Activity", "setting": "[10]", "result": "Active"}, {"measurement": "Activity", "setting": "Calu-1 [11]", "result": "Active"}, {"measurement": "Activity", "setting": "MDA-MB-231 [12]", "result": "Active"}, {"measurement": "Activity", "setting": "[13]", "result": 0, "unit": "%"}, {"measurement": "Activity", "setting": "[14]", "result": 1, "unit": "%"}, {"measurement": "Activity", "setting": "[15]", "result": 1.6, "unit": "%"}, {"measurement": "Activity", "setting": "[16]", "result": 1.6, "unit": "%"}, {"measurement": "Activity", "setting": "[17]", "result": 2.5, "unit": "%"}, {"measurement": "Activity", "setting": "[18]", "result": 3.8, "unit": "%"}, {"measurement": "Activity", "setting": "[19]", "result": 8.1, "unit": "%"}, {"measurement": "CLint scaled", "setting": "[20]", "result": 22.6, "unit": "mL/min/kg"}, {"measurement": "half-life", "setting": "[21]", "result": 4.65, "unit": "h"}, {"measurement": "half-life", "setting": "[22]", "result": 7.1, "unit": "h"}]}]}
